The results in this text go back to publication PMC10313052, “Filarial DAF-12 sense the host serum to resume iL3 development during infection” (PLOS Pathogens, 2023).

As usually defined, the EC50 is the concentration giving half of the maximal effect. As a reminder, the pEC50 is the EC50 on a negative log10 scale, so that one unit is a factor of ten. Higher therefore signals a small EC50.

pEC50: −log10 of the molar value. “Also recorded” adds a separate entry of the source.

One series concerns the target T1, CelDAF-12 (Caenorhabditis elegans, UniProt G5EFF5).
T1 construct: fusing the LBD of the receptor of interest (Hco, Cel, Dim or BmaDAF12) and the DBD of GAL4; expressed in transfected cells; host or cells: NIH3T3
T1 sequence (G5EFF5 516-753 limits assumed): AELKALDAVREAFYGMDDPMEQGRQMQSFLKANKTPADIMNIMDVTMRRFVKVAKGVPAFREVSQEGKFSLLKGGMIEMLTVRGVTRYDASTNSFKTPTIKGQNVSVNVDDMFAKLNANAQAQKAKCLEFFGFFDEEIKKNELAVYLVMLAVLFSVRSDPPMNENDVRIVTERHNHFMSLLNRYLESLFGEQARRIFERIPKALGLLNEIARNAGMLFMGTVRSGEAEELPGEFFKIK
The series is described as follows: cell-based. The series is classed as cell-based.

The target in another series is T2, HcoDAF-12 (Haemonchus contortus, UniProt A0A7I4Z123).
T2 sequence (A0A7I4Z123 444-684): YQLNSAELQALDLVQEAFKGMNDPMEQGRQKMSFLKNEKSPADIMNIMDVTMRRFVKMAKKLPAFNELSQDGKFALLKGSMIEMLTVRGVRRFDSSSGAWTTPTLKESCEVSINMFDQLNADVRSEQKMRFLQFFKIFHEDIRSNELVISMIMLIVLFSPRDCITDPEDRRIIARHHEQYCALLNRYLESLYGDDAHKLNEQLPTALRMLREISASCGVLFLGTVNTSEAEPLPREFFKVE
The series is described as follows: Cell-based transactivation assay, Gal4-HcoDAF-12_LBD luciferase reporter in NIH3T3 cells. A general note: A reporter such as luciferase makes a cellular process visible.

A further series concerns the target DimDAF-12 (Dirofilaria immitis, UniProt A0A7D0JJL8). The series is described as follows: cell-based. The series is classed as cell-based.
The next series relates to FXR. The settings on record: 10μM, 24 hours.
For a further series, the system named is D. immitis iL3. As to conditions: 50 µM.
The mark [1] stands for this setting: NIH3T3, 24 h, technical triplicates, Fig 2, read-out: EC50 (logEC50 SE) (converted).
Setting [2] is: concentrations well above the relevant physiological values.

Chain of DimDAF-12 (A0A7D0JJL8 587-828 limits assumed): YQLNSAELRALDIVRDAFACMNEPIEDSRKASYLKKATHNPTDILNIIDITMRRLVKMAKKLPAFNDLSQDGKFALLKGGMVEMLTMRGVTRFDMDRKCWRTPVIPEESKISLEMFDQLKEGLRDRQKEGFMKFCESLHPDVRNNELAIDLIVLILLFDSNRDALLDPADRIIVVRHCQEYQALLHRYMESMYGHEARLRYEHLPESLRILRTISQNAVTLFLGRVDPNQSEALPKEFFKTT

With `CC(CCCC(C)C1CCC2C3=CCC4CC(=O)CCC4(C)C3CCC21C)C(=O)O` [Δ7-dafachronic acid, (25S)-Δ7-dafachronic acid], the half-maximal effective concentration (EC50) on CelDAF-12 (setting [1]) was 11 nM; on HcoDAF-12 (setting [1]) it was 12 nM. Besides, the pEC50 at DimDAF-12 is 9.00.

With 3β-hydroxy-5-cholestenoic acid, the “Activation of FXR” value in the series on FXR is “do not activate”. Moreover, at CelDAF-12 (setting [2]), the “Activation of CelDAF-12 in dose-response” value is “failed to activate”. Also, on HcoDAF-12 (setting [2]), the “Activation of HcoDAF-12 in dose-response” value is listed as “failed to activate”. Further, the “Activation of DimDAF-12 by spiked charcoal-stripped mouse serum” value on DimDAF-12 is given as “failed to activate; also recorded: did not activate”.

On to `C[C@H](CCC[C@@H](C)[C@H]1CC[C@H]2[C@@H]3CCC4=CC(=O)CC[C@]4(C)[C@H]3CC[C@]12C)C(=O)O` [(25R)-Δ4-DA], for which the “Activation of DimDAF-12 by spiked charcoal-stripped mouse serum” value on DimDAF-12 was “partially complement; also recorded: partially restores; also recorded: partial restoration”.

In the case of `CC(=O)N1CCN(c2ccc(OCC3COC(Cn4ccnc4)(c4ccc(Cl)cc4Cl)O3)cc2)CC1` (stereo not drawn) [ketoconazole], the “Survival of iL3” value in the series on D. immitis iL3 is reported as “all iL3 died”.
